According to publication PMC9775191, “A Subset Screen of the Compounds Australia Scaffold Library Identifies 7-Acylaminodibenzoxazepinones as Potent and Selective Hits for Anti-Giardia Drug Discovery” (Biomedicines, 2022):

tested on: G. duodenalis BRIS/91/HEPU/1279; assay: Primary Giardia screen at 10 µM (live-cell imaging, automated counting); format: cell-based, Giardia duodenalis; settings: 24 h
Outline: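 Percent growth versus 0.2% DMSO vehicle, background-corrected with media-only wells, is reported at 24 and 48 h from automated live-cell counts. Testing used 10 μM final in a 3% O2 atmosphere, with plate quality checked by Z' factor.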

Point of comparison: O=C(NCC1(c2ccccc2)CCOCC1)c1ccc(Br)cc1 [SN00783501], “Average % Inhibition 24h” value 8.8%. Against it:
- Fc1cccc(Nc2c3c(nc4ccccc24)CCC3)c1 [SN00784170] — lower, 2.3%

same assay, conditions: 24 h, first singlicate assay

Point of comparison: O=C(NCC1(c2ccccc2)CCOCC1)c1ccc(Br)cc1 [SN00783501], “% Inhibition n=1 24h” value 16.8%. Against it:
- Fc1cccc(Nc2c3c(nc4ccccc24)CCC3)c1 [SN00784170] — lower, 4.6%

same assay, conditions: 24 h, re-assessment

Point of comparison: Fc1cccc(Nc2c3c(nc4ccccc24)CCC3)c1 [SN00784170], “% Inhibition n=2 24h” value 0.0%. Against it:
- O=C(NCC1(c2ccccc2)CCOCC1)c1ccc(Br)cc1 [SN00783501] — higher, 0.9%

same assay, conditions: 48 h

Point of comparison: Fc1cccc(Nc2c3c(nc4ccccc24)CCC3)c1 [SN00784170], “Average % Inhibition 48h” value 55.5%. Against it:
- O=C(NCC1(c2ccccc2)CCOCC1)c1ccc(Br)cc1 [SN00783501] — lower, 37.7%

same assay, conditions: 48 h, first singlicate assay

Point of comparison: Cc1coc(C)c1C(=O)CC1(O)C(=O)Nc2ccccc21 (centres unmarked) [SN00783840], “% Inhibition n=1 48h” value 0.0%. Against it:
- CCn1cc(C2OCCC2CNC/C=C/c2ccccc2OC)cn1 (centres unmarked) [SN00782244] — higher, 28.6%
- CC(C)(C)OC(=O)N1CCN(S(=O)(=O)C2CN(C(=O)C3(CN)CCC3)C2)CC1 [SN00782268] — higher, 1.1%
- O=C(CCc1cnn(-c2ccccc2)c1)Nc1cc(C2CCOCC2)[nH]n1 [SN00782289] — higher, 8.0%
- Cc1cccc(-c2noc(Cn3cccn3)n2)c1 [SN00782358] — the same, 0.0%
- COc1ccc(CNC(=O)N2CCN(C)CC2c2ccccc2)cn1 (centres unmarked) [SN00782363] — the same, 0.0%
- CCCCn1nnnc1CN1CCCC1Cn1cncn1 (centres unmarked) [SN00782373] — the same, 0.0%
- CCn1cc(CN2CCCN(C(=O)C(C)n3cncn3)CC2)cn1 (centres unmarked) [SN00782395] — the same, 0.0%
- CCc1nnsc1C(=O)N1CCCN(Cc2ccccc2F)CC1 [SN00782451] — the same, 0.0%
- CCc1nnsc1C(=O)N1CCCN(Cc2cnn(CC)c2)CC1 [SN00782455] — the same, 0.0%
- Cc1cc(C(=O)N2CCCN(Cc3cnn(C)c3)CC2)on1 [SN00782463] — the same, 0.0%
- Cn1ncc2c(N3CCCN(C4CC4)CC3)ncnc21 [SN00782468] — higher, 9.8%
- CCN1CCCN(c2ncnc3c2c(Br)nn3C)CC1 [SN00782469] — higher, 4.4%
- Cc1ccccc1OCC(=O)N1CCN(Cc2nnc3n2CCCCC3)CC1 [SN00782472] — higher, 0.5%
- OC(CN1CCCN(C2CC2)CC1)c1ccccc1C(F)(F)F (centres unmarked) [SN00782563] — higher, 5.9%
- COCCS(=O)(=O)N1CCCC1Cn1ccnc1 (centres unmarked) [SN00782604] — the same, 0.0%
- Cc1cc(C2CCCN(C(=O)CCc3cnn(C)c3)C2)n[nH]1 (centres unmarked) [SN00782611] — higher, 7.8%
- Cc1nsc(N2CCCN(C(=O)NCc3ccccc3C)CC2)n1 [SN00782653] — the same, 0.0%
- CCc1nnc2n1CCN(Cc1csc(-c3ccsc3)n1)C2 [SN00782656] — higher, 24.2%
- CCCCS(=O)(=O)N1CCC2(CC1)CC2c1nc(-c2cccc(Cl)c2)no1 (centres unmarked) [SN00782685] — the same, 0.0%
- CCC(OC1CCCC1)C(=O)N1CCN(c2nccn2C)CC1 (centres unmarked) [SN00782691] — the same, 0.0%
- COc1cccc(C2(C)NC(=O)N(Cc3csc(-c4ccccc4)n3)C2=O)c1 (centres unmarked) [SN00782700] — the same, 0.0%
- O=C1CC(C(=O)N2CCCCC2Cn2cccn2)CN1C1CCCC1 (centres unmarked) [SN00782719] — the same, 0.0%
- Cc1ccccc1C1CCN(C(=O)C2CCCC2)C1 (centres unmarked) [SN00782733] — higher, 7.3%
- Cc1cnn(CC(C)NCc2nc(-c3ccccn3)no2)c1 (centres unmarked) [SN00782812] — higher, 19.9%
- COCCN1CCCN(C(=O)C2CCCN(S(C)(=O)=O)C2)CC1 (centres unmarked) [SN00782901] — higher, 15.1%
- COc1ccc(CCC(=O)N2CCCN(C(=O)c3cc(-c4cccc(Cl)c4)on3)CC2)cc1 [SN00782943] — the same, 0.0%
- CC1(C(=O)N2CCCC(CN3CCOCC3)C2)CC1(Cl)Cl (centres unmarked) [SN00782980] — higher, 14.3%
- CC(C)(C)NC(=O)CCN1CCc2[nH]nc(C(F)(F)F)c2C1 [SN00783032] — higher, 9.6%
- C=C(C)CN1Cc2ccccc2CC1c1nnc(CC)o1 (centres unmarked) [SN00783147] — the same, 0.0%
- Cc1nnc(C2Cc3ccccc3CN2CCOc2ccc(F)cc2)o1 (centres unmarked) [SN00783149] — the same, 0.0%
- CN1CCN(CC2CCN(C(=O)Cc3cccc4ccccc34)CC2)CC1 [SN00783181] — higher, 17.7%
- CCC(C)(NCc1ncc(-c2cccs2)o1)c1nccs1 (centres unmarked) [SN00783193] — higher, 26.6%
- Cc1nn(C)c(C)c1CC(C)NC(=O)NCC1CN2CCCC2CO1 (centres unmarked) [SN00783221] — higher, 15.6%
- O=C(Cc1ccc2c(c1)CCC2)N1CCC(n2cncn2)CC1 [SN00783222] — higher, 6.3%
- O=C(Nc1cccc(C(=O)N2CCC(N3CCCC3)C2)c1)c1ccco1 (centres unmarked) [SN00783226] — the same, 0.0%
- CC(=O)NCc1ccc(C(=O)N2CCCCC(N3CCCC3)C2)cc1 (centres unmarked) [SN00783239] — higher, 4.5%
- COCCN1C(=O)CCC(C(=O)O)C1c1cnn(-c2ccccc2)c1 (centres unmarked) [SN00783261] — the same, 0.0%
- CC(c1nnc(-c2cccs2)o1)N1CCc2cncnc2C1 (centres unmarked) [SN00783267] — higher, 12.9%
- CCc1ncc2c(n1)CN(Cc1nc(-c3ccco3)oc1C)CC2 [SN00783272] — the same, 0.0%
- Cc1ncccc1CNCC1CN(C2CC2)CCO1 (centres unmarked) [SN00783283] — higher, 14.5%
- CS(=O)(=O)c1nccn1Cc1ccccn1 [SN00783289] — higher, 1.6%
- Cc1sc(=O)n(CCC(=O)N2CCC(C)CC2c2ccco2)c1C (centres unmarked) [SN00783298] — the same, 0.0%
- CC(=O)C1=C(C)NC(=O)NC1c1ccc(Cl)cc1 (centres unmarked) [SN00783317] — higher, 2.8%
- NC(=O)c1nn2c(C(F)(F)F)cc(-c3ccccc3)nc2c1Br [SN00783344] — higher, 38.7%
- CN(C)c1nc(N(C)C)nc(N2CC(=O)N(c3ccc(Cl)c(Cl)c3)C2=N)n1 [SN00783378] — higher, 16.0%
- Cc1cc(C(F)(F)F)nn1CC(=O)Nc1cc(Oc2cccnc2)cc([N+](=O)[O-])c1 [SN00783379] — higher, 22.1%
- O=C(NCC1(c2ccccc2)CCOCC1)c1ccc(Br)cc1 [SN00783501] — higher, 61.1%
- CCOC(=O)c1sc2nc(C)nc(N3CCCCC3C)c2c1C (centres unmarked) [SN00783508] — the same, 0.0%
- COc1cc(C(=O)NCC2(c3ccccc3)CCOCC2)cc(OC)c1OC [SN00783529] — higher, 6.5%
- CC(=O)Oc1ccc(C(=O)Nc2ccc3nc(-c4ccc(Cl)cc4)oc3c2)cc1 [SN00783571] — the same, 0.0%
- CC1=NN(C(=O)COc2ccc(C)c(C)c2)C(O)(C(F)(F)F)C1 (centres unmarked) [SN00783577] — the same, 0.0%
- CC(NC(=O)Cn1nc(-c2ccccc2)c2ccccc2c1=O)c1ccccc1 (centres unmarked) [SN00783639] — higher, 3.0%
- O=C(O)c1cccc(Nc2nc(Nc3ccccc3)nc(N3CCCC3)n2)c1 [SN00783666] — higher, 0.3%
- Cc1cc(Cl)ccc1OCCCC(=O)Nc1nc2ccccc2[nH]1 [SN00783684] — higher, 27.8%
- Cc1ccc(-c2cc(C(=O)N3CC(C)CC(C)C3)c3ccccc3n2)o1 (centres unmarked) [SN00783691] — higher, 7.2%
- Cc1c(CN(C)C(=O)c2cc3nc(-c4cccs4)cc(C(F)(F)F)n3n2)cnn1C [SN00783696] — the same, 0.0%
- Cc1ccc(-c2cc(C(=O)NCc3cn(C)nc3C)c3ccccc3n2)cc1C [SN00783737] — the same, 0.0%
- CCCNC(=O)c1cnn2c(C(F)F)cc(-c3ccc(C)cc3)nc12 [SN00783826] — higher, 40.8%
- Cc1ccc(-c2cc(C(F)F)n3ncc(C(=O)NCc4cnn(C)c4C)c3n2)cc1 [SN00783829] — the same, 0.0%
- CCn1cc(CN(C)C(=O)c2cnn3c(C(F)F)cc(-c4ccc(OC)cc4)nc23)c(C)n1 [SN00783837] — higher, 29.0%
- CCOC(=O)c1c(NC(=O)CN2C(=O)COc3ccc(Cl)cc32)sc2c1CCCC2 [SN00783847] — higher, 26.0%
- CCCN(c1ccccc1C(=O)O)S(=O)(=O)c1ccc2[nH]c(=O)[nH]c2c1 [SN00783856] — higher, 12.1%
- COc1ccc(OCCn2c(NC(=O)c3ccc(OC)cc3)nc3ccccc32)cc1 [SN00783884] — higher, 19.5%
- O=C(Cn1cnc([N+](=O)[O-])n1)NCCc1ccccc1 [SN00783937] — higher, 33.8%
- COc1ccc(C2NC(C(=O)O)Cc3c2[nH]c2ccccc32)c(OC)c1 (centres unmarked) [SN00783957] — higher, 5.0%
- CCOc1cc2c(cc1OCC)-n1cccc1C(c1cccc([N+](=O)[O-])c1)NC2 (centres unmarked) [SN00783996] — higher, 10.3%
- COc1cc(CNCCNC(=O)c2nonc2N)ccc1OCc1ccc(F)cc1 [SN00784068] — the same, 0.0%
- COC(=O)C1=C(C)N(C(C)C)C(=O)C1(NC(=O)C1CCCCC1)C(F)(F)F (centres unmarked) [SN00784094] — the same, 0.0%
- COc1cccc(C(=O)NC2(C(F)(F)F)C(=O)N(Cc3ccccc3)C(C)=C2C(C)=O)c1 (centres unmarked) [SN00784101] — higher, 2.9%
- CN(CCc1ccccn1)C(=O)c1cc2nc(-c3ccc(Cl)cc3)cc(C(F)(F)F)n2n1 [SN00784121] — the same, 0.0%
- O=C(Nc1cccc(C(F)(F)F)c1)c1cnn2c(C(F)(F)F)cc(-c3ccco3)nc12 [SN00784128] — higher, 9.2%
- Fc1cccc(Nc2c3c(nc4ccccc24)CCC3)c1 [SN00784170] — higher, 66.2%
- CCCCN(CCCNC(=O)c1c(C)oc2nc[nH]c(=O)c12)Cc1ccccc1 [SN00784186] — higher, 16.8%
- CN1C(=O)c2cc(NC(=O)c3ccc4c(c3)OCO4)ccc2N2CCN=C12 [SN00784190] — higher, 31.6%
- Fc1ccc(-c2cc(C(F)(F)F)nc(NCc3ccco3)n2)cc1 [SN00784252] — higher, 2.3%
- CCOC(=O)N1CCN(c2nc(-c3cccs3)cc(C(F)(F)F)n2)CC1 [SN00784268] — higher, 21.6%
- CC(C)CCNC(=O)C1CCCCN1S(=O)(=O)c1ccc(F)cc1 (centres unmarked) [SN00784282] — higher, 5.5%
- O=C(NCCCN1CCCCC1)c1cc(-c2cccs2)nc2ccccc12 [SN00784290] — higher, 13.3%
- O=c1c2cccnc2n(Cc2cc(=O)n3ccccc3n2)c(=O)n1CCc1ccccc1 [SN00784337] — higher, 7.3%
- CCOc1ccc(NS(=O)(=O)c2cc(C(=O)Nc3cc(C)ccc3C)[nH]n2)cc1 [SN00784397] — higher, 15.3%
- Cc1ccc2c(=O)c(C(=O)N3CCSCC3)c[nH]c2n1 [SN00784417] — higher, 11.0%

same assay, conditions: 48 h, re-assessment

Point of comparison: Fc1cccc(Nc2c3c(nc4ccccc24)CCC3)c1 [SN00784170], “% Inhibition n=2 48h” value 44.9%. Against it:
- O=C(NCC1(c2ccccc2)CCOCC1)c1ccc(Br)cc1 [SN00783501] — lower, 14.4%
